Data reported in patent US9145351B2, “Azole derivatives, methods for producing the same, intermediate thereof, agro-horticultural agents” (KUREHA CORPORATION, priority 2009, dated 2015).

How the values were obtained:
Assay type in all cases: cell-based
Fusarium oxysporum = assay: Plate medium fungicidal assay, cucumber fusarium wilt F.c (Experimental Example 5)
Method: (§1) In this Experimental Example, the fungicidal effects of the inventive compounds on various phytopathogenic fungi for plants and hazardous microorganism for industrial materials were examined by the methods described below. Each inventive compound was dissolved in 2 ml of dimethyl sulfoxide. 0.6 ml of this solution was added to 60 nil of a PDA medium (potato dextrose agar medium) at about 60 degrees C., which was mixed thoroughly in a 100-ml conical flask, and poured into a dish, where it was solidified, thereby obtaining a plate medium containing the inventive compound at 50 mg/L and 5 mg/L. On the other hand, a subject microorganism previously cultured on a plate medium was cut out using a cork borer whose diameter was 4 mm, and inoculated to the test compound-containing plate medium described above. […] The growth degree of the microorganism on the test compound-containing plate medium thus observed was compared with the growth degree of the microorganism in the untreated group, and % mycelial growth inhibition was calculated by the following equation. R=100(dc−dt)/dc wherein R=% mycelial extension inhibition, dc=flora diameter in untreated plate, dt=flora diameter in treated plate. The results obtained as described above were evaluated as one of the 5 grades according to the following criteria. […] Cucumber fusarium wilt (Fusarium oxysporum) F.c

Phaeosphaeria nodorum = assay: Plate medium fungicidal assay, wheat Septoria nodorum blotch P.n (Experimental Example 5)
Method: as §1, with “Wheat Septoria nodorum blotch (Phaeosphaeria nodorum) P.n” for “Cucumber fusarium wilt (Fusarium oxysporum) F.c”

Giberella fujikuroi = assay: Plate medium fungicidal assay, rice bakanae disease G.f (Experimental Example 5)
Method: as §1, with “Rice bakanae disease (Giberella fujikuroi) G.f” for “Cucumber fusarium wilt (Fusarium oxysporum) F.c”

Ustilago nuda = assay: Plate medium fungicidal assay, barley loose smut U.n (Experimental Example 5)
Method: as §1, with “Barley loose smut (Ustilago nuda) U.n” for “Cucumber fusarium wilt (Fusarium oxysporum) F.c”

[1] = plate medium containing compound at 5 mg/L
[2] = plate medium containing compound at 50 mg/L

Row | Compound | Growth inhibition grade, F.c (Fusarium oxysporum; [1]) | Growth inhibition grade, F.c (Fusarium oxysporum; [2]) | Growth inhibition grade, P.n (Phaeosphaeria nodorum; [1]) | Growth inhibition grade, P.n (Phaeosphaeria nodorum; [2]) | Growth inhibition grade, G.f (Giberella fujikuroi; [1]) | Growth inhibition grade, G.f (Giberella fujikuroi; [2]) | Growth inhibition grade, U.n (Ustilago nuda; [1]) | Growth inhibition grade, U.n (Ustilago nuda; [2]) | Growth inhibition grade, F.c (Fusarium oxysporum; plate medium, 5 mg/L) | Growth inhibition grade, F.c (Fusarium oxysporum; plate medium, 50 mg/L) | Growth inhibition grade, P.n (Phaeosphaeria nodorum; plate medium, 5 mg/L) | Growth inhibition grade, P.n (Phaeosphaeria nodorum; plate medium, 50 mg/L) | Growth inhibition grade, G.f (Giberella fujikuroi; plate medium, 5 mg/L) | Growth inhibition grade, G.f (Giberella fujikuroi; plate medium, 50 mg/L) | Growth inhibition grade, U.n (Ustilago nuda; plate medium, 5 mg/L) | Growth inhibition grade, U.n (Ustilago nuda; plate medium, 50 mg/L)
1 | C[C@@]1(CCl)CC[C@@H](Cc2ccc(Cl)cc2)[C@]1(O)Cn1cncn1 (racemic) [Compound I-101] | 5 (% Mycerial growth inhibition of 80% or higher) | 5 (% Mycerial growth inhibition of 80% or higher) | 5 (% Mycerial growth inhibition of 80% or higher) | 5 (% Mycerial growth inhibition of 80% or higher) | 5 (% Mycerial growth inhibition of 80% or higher) | 5 (% Mycerial growth inhibition of 80% or higher) | 5 (% Mycerial growth inhibition of 80% or higher) | 5 (% Mycerial growth inhibition of 80% or higher) | – | – | – | – | – | – | – | –
2 | CC1(C)CCC(Cc2ccc(Cl)cc2)C1(O)Cn1ncnc1S (racemic) [compound (2)] | – | – | – | – | – | – | – | – | 3 (% Mycelial growth inhibition of less than 60 to 40% or higher) | 4 (% Mycerial growth inhibition of less than 80 to 60% or higher) | 3 (% Mycelial growth inhibition of less than 60 to 40% or higher) | 4 (% Mycerial growth inhibition of less than 80 to 60% or higher) | 3 (% Mycelial growth inhibition of less than 60 to 40% or higher) | 4 (% Mycerial growth inhibition of less than 80 to 60% or higher) | 1 (% Mycerial growth inhibition of less than 20%) | 3 (% Mycelial growth inhibition of less than 60 to 40% or higher)
3 | C[C@]1(CCl)CC[C@@H](Cc2ccc(OC(F)(F)F)cc2)[C@]1(O)Cn1cncn1 (relative stereo) [Compound I-79] | 5 (% Mycerial growth inhibition of 80% or higher) | 5 (% Mycerial growth inhibition of 80% or higher) | 5 (% Mycerial growth inhibition of 80% or higher) | 5 (% Mycerial growth inhibition of 80% or higher) | 5 (% Mycerial growth inhibition of 80% or higher) | 5 (% Mycerial growth inhibition of 80% or higher) | 5 (% Mycerial growth inhibition of 80% or higher) | 5 (% Mycerial growth inhibition of 80% or higher) | – | – | – | – | – | – | – | –
4 | Cc1ccc(C[C@@H]2CC[C@](C)(CCl)[C@@]2(O)Cn2cncn2)cc1 (relative stereo) [Compound I-80] | 5 (% Mycerial growth inhibition of 80% or higher) | 5 (% Mycerial growth inhibition of 80% or higher) | 5 (% Mycerial growth inhibition of 80% or higher) | 5 (% Mycerial growth inhibition of 80% or higher) | 5 (% Mycerial growth inhibition of 80% or higher) | 5 (% Mycerial growth inhibition of 80% or higher) | 5 (% Mycerial growth inhibition of 80% or higher) | 5 (% Mycerial growth inhibition of 80% or higher) | – | – | – | – | – | – | – | –
5 | C[C@]1(CCl)CC[C@@H](Cc2ccc(-c3ccccc3)cc2)[C@]1(O)Cn1cncn1 (relative stereo) [Compound I-82] | 5 (% Mycerial growth inhibition of 80% or higher) | 5 (% Mycerial growth inhibition of 80% or higher) | 5 (% Mycerial growth inhibition of 80% or higher) | 5 (% Mycerial growth inhibition of 80% or higher) | 5 (% Mycerial growth inhibition of 80% or higher) | 5 (% Mycerial growth inhibition of 80% or higher) | 5 (% Mycerial growth inhibition of 80% or higher) | 5 (% Mycerial growth inhibition of 80% or higher) | – | – | – | – | – | – | – | –
6 | C[C@]1(CCl)CC[C@@H](Cc2ccccc2F)[C@]1(O)Cn1cncn1 (relative stereo) [Compound I-86] | 5 (% Mycerial growth inhibition of 80% or higher) | 5 (% Mycerial growth inhibition of 80% or higher) | 5 (% Mycerial growth inhibition of 80% or higher) | 5 (% Mycerial growth inhibition of 80% or higher) | 5 (% Mycerial growth inhibition of 80% or higher) | 5 (% Mycerial growth inhibition of 80% or higher) | 5 (% Mycerial growth inhibition of 80% or higher) | 5 (% Mycerial growth inhibition of 80% or higher) | – | – | – | – | – | – | – | –
7 | C[C@]1(CCl)CC[C@@H](Cc2ccc(F)cc2F)[C@]1(O)Cn1cncn1 (relative stereo) [Compound I-88] | 5 (% Mycerial growth inhibition of 80% or higher) | 5 (% Mycerial growth inhibition of 80% or higher) | 5 (% Mycerial growth inhibition of 80% or higher) | 5 (% Mycerial growth inhibition of 80% or higher) | 5 (% Mycerial growth inhibition of 80% or higher) | 5 (% Mycerial growth inhibition of 80% or higher) | 5 (% Mycerial growth inhibition of 80% or higher) | 5 (% Mycerial growth inhibition of 80% or higher) | – | – | – | – | – | – | – | –
8 | CC[C@]1(CCl)CC[C@@H](Cc2ccccc2)[C@]1(O)Cn1cncn1 (relative stereo) [Compound I-97] | 5 (% Mycerial growth inhibition of 80% or higher) | 5 (% Mycerial growth inhibition of 80% or higher) | 5 (% Mycerial growth inhibition of 80% or higher) | 5 (% Mycerial growth inhibition of 80% or higher) | 5 (% Mycerial growth inhibition of 80% or higher) | 5 (% Mycerial growth inhibition of 80% or higher) | 5 (% Mycerial growth inhibition of 80% or higher) | 5 (% Mycerial growth inhibition of 80% or higher) | – | – | – | – | – | – | – | –
9 | C[C@@]1(CCl)CC[C@@H](Cc2cccc(Cl)c2)[C@]1(O)Cn1cncn1 (relative stereo) [Compound I-174] | – | – | – | – | – | – | – | – | 5 (% Mycerial growth inhibition of 80% or higher) | 5 (% Mycerial growth inhibition of 80% or higher) | 5 (% Mycerial growth inhibition of 80% or higher) | 5 (% Mycerial growth inhibition of 80% or higher) | 5 (% Mycerial growth inhibition of 80% or higher) | 5 (% Mycerial growth inhibition of 80% or higher) | 4 (% Mycerial growth inhibition of less than 80 to 60% or higher) | 5 (% Mycerial growth inhibition of 80% or higher)
